Structures can show the parent of a compound that is named as a salt.
target: rabbit GSK-3β (Oryctolagus cuniculus, UniProt G1T8E2); test: GSK-3β-inhibitory activity (phosphorylation of CREB phosphopeptide, [γ-32P]ATP, scintillation counting); assay type: biochemical; details: rabbit GSK-3β (0.5 unit), 30° C. for 20 minutes, Table 1
Protocol: CREB phosphopeptide ([…]), rabbit GSK-3β (0.5 unit), ATP ([…]), [γ-^32P]ATP (12.3 kBq) and a test compound were reacted in a GSK-3β buffer solution (25 μL) (20 mmol/L Tris-HCl (pH 7.5), 10 mmol/L magnesium chloride, 5 mmol/L dithiothreitol) containing 1% dimethyl sulfoxide, at 30° C. for 20 minutes. The reaction product (10 μL) was adsorbed on a P81 ion-exchange paper, and the paper was washed with phosphoric acid (100 mmol/L) and measured for cpm on a scintillation counter.
CREB Phosphopeptide is Lys-Arg-Arg-Glu-Ile-Leu-Ser-Arg-Arg-Pro-Ser(P)-Tyr-Arg.

rabbit GSK-3β, sequence (G1T8E2 1-432): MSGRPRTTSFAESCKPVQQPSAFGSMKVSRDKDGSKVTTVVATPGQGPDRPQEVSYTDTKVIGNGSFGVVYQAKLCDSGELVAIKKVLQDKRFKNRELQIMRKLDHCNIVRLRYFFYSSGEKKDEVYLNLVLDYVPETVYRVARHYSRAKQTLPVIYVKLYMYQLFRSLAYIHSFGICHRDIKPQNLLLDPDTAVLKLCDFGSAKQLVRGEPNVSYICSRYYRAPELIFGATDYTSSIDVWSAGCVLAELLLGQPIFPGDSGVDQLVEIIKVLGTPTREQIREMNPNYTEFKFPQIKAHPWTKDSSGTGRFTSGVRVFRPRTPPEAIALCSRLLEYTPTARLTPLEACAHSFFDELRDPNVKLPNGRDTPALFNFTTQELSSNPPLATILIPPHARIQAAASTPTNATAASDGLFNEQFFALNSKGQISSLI

`CC(=O)CC1=C(C#N)C(c2cccc(C#N)c2Br)c2c[nH]nc2N1` (stereo not drawn) [Example 1063, 6-Acetylmethyl-4-(2-bromo-3-cyanophenyl)-5-cyano-4,7-dihydro-2H-pyrazolo[3,4-b]pyridine] and `CNC(C)C1=C(C#N)C(c2cccc(C#N)c2Br)c2c[nH]nc2N1` (stereo not drawn) [Example 1155, 4-(2-Bromo-3-cyanophenyl)-5-cyano-4,7-dihydro-6-(1-(methylamino)ethyl)-2H-pyrazolo[3,4-b]pyridine 2 Hydrochloride] are within 1.5-fold of each other in IC50: 3 nM for the first, 2.2 nM for the second.

Going from `N#CC1=C(C2CCCCN2)Nc2n[nH]cc2C1c1cccc2nonc12` (stereo not drawn) [Example 1008, 4-(2,1,3-Benzoxadiazol-4-yl)-5-cyano-4,7-dihydro-6-(piperidin-2-yl)-2H-pyrazolo[3,4-b]pyridine] to `N#CC1=C(C2CCCCC2=O)Nc2n[nH]cc2C1c1cccc2nonc12` (stereo not drawn) [Example 1058, 4-(2,1,3-Benzoxadiazol-4-yl)-5-cyano-4,7-dihydro-6-(2-oxocyclohexan-1-yl)-2H-pyrazolo[3,4-b]pyridine], the IC50 falls from 3.7 nM to 1.8 nM (2.1-fold).

Going from `CN1C[C@@H]2CC[C@H]1[C@H](C1=C(C#N)C(c3cccc(C#N)c3Br)c3c[nH]nc3N1)C2` (stereo partly drawn) [Example 1148, 4-(2-Bromo-3-cyanophenyl)-5-cyano-4,7-dihydro-6-(exo-2-methyl-2-azabicyclo[2,2,2]octan-6-yl)-2H-pyrazolo[3,4-b]pyridine] to `N#CC1=C([C@@H]2C[C@H]3CC[C@@H]2NC3)Nc2n[nH]cc2C1c1cccc(C#N)c1Br` (stereo partly drawn) [Example 1146, 6-(exo-2-Azabicyclo[2,2,2]octan-6-yl)-4-(2-bromo-3-cyanophenyl)-5-cyano-4,7-dihydro-2H-pyrazolo[3,4-b]pyridine 2 Hydrochloride], the IC50 falls from 3.2 nM to 0.61 nM (5.2-fold).

First: CN1CCC(C2=C(C#N)C(c3cccc4nonc34)c3c[nH]nc3N2)CC1 (stereo not drawn) [Example 1003, 4-(2,1,3-Benzoxadiazol-4-yl)-5-cyano-4,7-dihydro-6-(1-methylpiperidin-4-yl)-2H-pyrazolo[3,4-b]pyridine]
Second: N#CC1=C(C2CCNCC2)Nc2n[nH]cc2C1c1cccc2nonc12 (stereo not drawn) [Example 1002, 4-(2,1,3-Benzoxadiazol-4-yl)-5-cyano-4,7-dihydro-6-(piperidin-4-yl)-2H-pyrazolo[3,4-b]pyridine]
The IC50 of the first is 4-fold lower: 2.5 nM for the first, 10 nM for the second.

Compared with `CN1CCOC(C2=C(C#N)C(c3cccc4nonc34)c3c[nH]nc3N2)C1` (stereo not drawn) [Example 1011, 4-(2,1,3-Benzoxadiazol-4-yl)-5-cyano-4,7-dihydro-6-(4-methylmorpholin-2-yl)-2H-pyrazolo[3,4-b]pyridine], `CN(C)C1CCC(C2=C(C#N)C(c3cccc4nonc34)c3c[nH]nc3N2)CC1` (stereo not drawn) [Example 1023, 4-(2,1,3-Benzoxadiazol-4-yl)-5-cyano-4,7-dihydro-6-(4-(N,N-dimethylamino)cyclohexyl)-2H-pyrazolo[3,4-b]pyridine] is 3.4-fold lower in IC50: 14 nM for the first, 4.1 nM for the second.

test system: not given; test: not given; details: not given

First: CC(=O)CC1=C(C#N)C(c2cccc(C#N)c2Br)c2c[nH]nc2N1 (stereo not drawn) [Example 1063, 6-Acetylmethyl-4-(2-bromo-3-cyanophenyl)-5-cyano-4,7-dihydro-2H-pyrazolo[3,4-b]pyridine]
Second: N#CC1=C(C2CCNCC2)Nc2n[nH]cc2C1c1cccc2nonc12 (stereo not drawn) [Example 1002, 4-(2,1,3-Benzoxadiazol-4-yl)-5-cyano-4,7-dihydro-6-(piperidin-4-yl)-2H-pyrazolo[3,4-b]pyridine]
The melting point of the first is higher: 230 °C for the first, 216 °C for the second.
